Legend:
gliosarcoma (SF-539) = experiment: NCI 60 five dose screen; settings: for CC50: read-out: LC50
SF-295 = experiment: NCI 60 one dose screen; assay type: cell-based, human; settings: one dose; CNS Cancer; SF-295
RPMI-8226 = experiment: NCI 60 five dose screen; settings: for GI50 / TGI / CC50: RPMI-8226 (Leukemia), five dose; for 50% growth inhibition (GI50): leukemia cell line RPMI-8226; for CC50: read-out: LC50
NCI-H522 (NSCLC) = experiment: NCI 60 one dose screen; assay type: cell-based, human; settings: Non-small Cell Lung Cancer
[1] = system: 60 different human tumor cell lines; experiment: NCI Development Therapeutics Program 60 cell line screen, one dose; assay type: cell-based
HCT-15 (Colon Cancer) = experiment: NCI 60 one dose screen; assay type: cell-based, human
SR = experiment: NCI 60 five dose screen; settings: for 50% growth inhibition (GI50): leukemia cell line SR; for CC50: read-out: LC50
SF-539 = experiment: NCI 60 one dose screen; assay type: cell-based, human; settings: one dose; CNS Cancer; SF-539
[2] = Non-small Cell Lung Cancer, A549/ATCC
[3] = Non-small Cell Lung Cancer, EKVX
[4] = Non-small Cell Lung Cancer, HOP-62
[5] = Non-small Cell Lung Cancer, HOP-92
[6] = Non-small Cell Lung Cancer, NCI-H23
[7] = Non-small Cell Lung Cancer, NCI-H226
[8] = Non-small Cell Lung Cancer, NCI-H322M
[9] = Non-small Cell Lung Cancer, NCI-H460

(1S,2R,13R,14S,18S)-7-(2,4-dimethylanilino)-2,18-dimethyl-6-thia-8-azapentacyclo[11.7.0.02,10.05,9.014,18]icosa-5(9),7,10-trien-17-one [IIa.14]
GI50 (gliosarcoma (SF-539); SF-539 (CNS Cancer), five dose): 1.62 µM | TGI (gliosarcoma (SF-539); SF-539 (CNS Cancer), five dose): 3.08E−6 | CC50 (gliosarcoma (SF-539); SF-539 (CNS Cancer), five dose): 5.86 µM | Growth Percent (SF-295): 63.77% | GI50 (RPMI-8226): 2.43 µM | TGI (RPMI-8226): 6.25E−6 | 50% growth inhibition (GI50) (RPMI-8226): submicromolar | CC50 (RPMI-8226): > 100 µM | Growth Percent (NCI-H522 (NSCLC)): 24.64% | Growth Percent ([1]; Breast Cancer, BT-549): 2.85% | Growth Percent ([1]; Breast Cancer, HS 578T): 45.27% | Growth Percent ([1]; Breast Cancer, MCF7): 18.18% | Growth Percent ([1]; Breast Cancer, MDA-MB-231/ATCC): 26.55% | Growth Percent ([1]; Breast Cancer, MDA-MB-468): 16.97% | Growth Percent ([1]; Breast Cancer, T-47D): 41.81% | Growth Percent ([1]; CNS Cancer, SF-268): 46.93% | Growth Percent ([1]; CNS Cancer, SNB-19): 44.03% | Growth Percent ([1]; CNS Cancer, SNB-75): 35.14% | Growth Percent ([1]; CNS Cancer, U251): 18.36% | Growth Percent ([1]; Colon Cancer, COLO 205): 62.35% | Growth Percent ([1]; Colon Cancer, HCC-2998): 84.48% | Growth Percent ([1]; Colon Cancer, HCT-116): −27.32% | Growth Percent ([1]; Colon Cancer, HT29): 3.81% | Growth Percent ([1]; Colon Cancer, KM12): 44.55% | Growth Percent ([1]; Colon Cancer, SW-620): 4.35% | Growth Percent ([1]; Leukemia, CCRF-CEM): 7.99% | Growth Percent ([1]; Leukemia, HL-60(TB)): 9.29% | Growth Percent ([1]; Leukemia, K-562): 5.33% | Growth Percent ([1]; Leukemia, MOLT-4): −0.31% | Growth Percent ([1]; Leukemia, RPMI-8226): −3.52% | Growth Percent ([1]; Leukemia, SR): −0.63% | Growth Percent ([1]; Melanoma, LOX IMVI): −16.56% | Growth Percent ([1]; Melanoma, M14): 37.85% | Growth Percent ([1]; Melanoma, MALME-3M): 27.34% | Growth Percent ([1]; Melanoma, MDA-MB-435): 16.89% | Growth Percent ([1]; Melanoma, SK-MEL-2): 72.63% | Growth Percent ([1]; Melanoma, SK-MEL-5): 51.38% | Growth Percent ([1]; Melanoma, SK-MEL-28): 50.77% | Growth Percent ([1]; Melanoma, UACC-62): 39.03% | Growth Percent ([1]; Melanoma, UACC-257): 65.55% | Growth Percent [1, 2]: 61.13% | Growth Percent [1, 3]: 51.95% | Growth Percent [1, 4]: 45.74% | Growth Percent [1, 5]: 65.93% | Growth Percent [1, 6]: 54.16% | Growth Percent [1, 7]: 72.85% | Growth Percent [1, 8]: 79.50% | Growth Percent [1, 9]: 45.78% | Growth Percent ([1]; Ovarian Cancer, IGROV1): 17.68% | Growth Percent ([1]; Ovarian Cancer, NCI/ADR-RES): 53.35% | Growth Percent ([1]; Ovarian Cancer, OVCAR-3): −6.33% | Growth Percent ([1]; Ovarian Cancer, OVCAR-4): 59.62% | Growth Percent ([1]; Ovarian Cancer, OVCAR-5): 59.08% | Growth Percent ([1]; Ovarian Cancer, OVCAR-8): 31.69% | Growth Percent ([1]; Ovarian Cancer, SK-OV-3): 78.49% | Growth Percent ([1]; Prostate Cancer, DU-145): 25.93% | Growth Percent ([1]; Prostate Cancer, PC-3): 15.83% | Growth Percent ([1]; Renal Cancer, 786-0): 5.54% | Growth Percent ([1]; Renal Cancer, A498): 66.68% | Growth Percent ([1]; Renal Cancer, ACHN): 32.28% | Growth Percent ([1]; Renal Cancer, CAKI-1): 49.83% | Growth Percent ([1]; Renal Cancer, RXF 393): 28.78% | Growth Percent ([1]; Renal Cancer, SN12C): 26.21% | Growth Percent ([1]; Renal Cancer, TK-10): 63.32% | Growth Percent ([1]; Renal Cancer, UO-31): 34.25% | Growth Percent (HCT-15 (Colon Cancer)): 0.81% | GI50 (SR; SR (Leukemia), five dose): 2.32 µM | TGI (SR; SR (Leukemia), five dose): >1.00E−4 | 50% growth inhibition (GI50) (SR): submicromolar | CC50 (SR; SR (Leukemia), five dose): > 100 µM | Growth Percent (SF-539): 8.46%

(1S,2R,13R,14S,18S)-7-(3-fluoroanilino)-2,18-dimethyl-6-thia-8-azapentacyclo[11.7.0.02,10.05,9.014,18]icosa-5(9),7,10-trien-17-one [IIa.8]
GI50 (gliosarcoma (SF-539); SF-539 (CNS Cancer), five dose): 1.34 µM | TGI (gliosarcoma (SF-539); SF-539 (CNS Cancer), five dose): 2.94E−6 | GI50 (gliosarcoma (SF-539); gliosarcoma SF-539): 1.34 µM | CC50 (gliosarcoma (SF-539); SF-539 (CNS Cancer), five dose): 6.45 µM | Growth Percent (SF-295): −18.79% | GI50 (RPMI-8226): 0.859 µM | TGI (RPMI-8226): 3.90E−6 | 50% growth inhibition (GI50) (RPMI-8226): submicromolar | CC50 (RPMI-8226): > 100 µM | Growth Percent (NCI-H522 (NSCLC)): −43.73% | Growth Percent ([1]; Breast Cancer, BT-549): −8.61% | Growth Percent ([1]; Breast Cancer, HS 578T): 35.44% | Growth Percent ([1]; Breast Cancer, MCF7): 4.46% | Growth Percent ([1]; Breast Cancer, MDA-MB-231/ATCC): 38.20% | Growth Percent ([1]; Breast Cancer, MDA-MB-468): −2.99% | Growth Percent ([1]; Breast Cancer, T-47D): −0.76% | Growth Percent ([1]; CNS Cancer, SF-268): 55.66% | Growth Percent ([1]; CNS Cancer, SNB-19): 62.83% | Growth Percent ([1]; CNS Cancer, SNB-75): 18.66% | Growth Percent ([1]; CNS Cancer, U251): 15.66% | Growth Percent ([1]; Colon Cancer, COLO 205): 47.59% | Growth Percent ([1]; Colon Cancer, HCC-2998): 75.50% | Growth Percent ([1]; Colon Cancer, HCT-116): −68.78% | Growth Percent ([1]; Colon Cancer, HT29): −3.32% | Growth Percent ([1]; Colon Cancer, KM12): 38.74% | Growth Percent ([1]; Colon Cancer, SW-620): 4.62% | Growth Percent ([1]; Leukemia, CCRF-CEM): 4.95% | Growth Percent ([1]; Leukemia, HL-60(TB)): 8.58% | Growth Percent ([1]; Leukemia, K-562): −0.51% | Growth Percent ([1]; Leukemia, MOLT-4): −3.78% | Growth Percent ([1]; Leukemia, RPMI-8226): −22.26% | Growth Percent ([1]; Leukemia, SR): −11.87% | Growth Percent ([1]; Melanoma, LOX IMVI): 6.22% | Growth Percent ([1]; Melanoma, M14): 44.82% | Growth Percent ([1]; Melanoma, MALME-3M): 22.82% | Growth Percent ([1]; Melanoma, MDA-MB-435): 35.93% | Growth Percent ([1]; Melanoma, SK-MEL-2): 21.81% | Growth Percent ([1]; Melanoma, SK-MEL-5): 32.06% | Growth Percent ([1]; Melanoma, SK-MEL-28): 39.44% | Growth Percent ([1]; Melanoma, UACC-62): 37.50% | Growth Percent ([1]; Melanoma, UACC-257): 73.04% | Growth Percent [1, 2]: 35.39% | Growth Percent [1, 3]: 46.43% | Growth Percent [1, 4]: 20.40% | Growth Percent [1, 5]: 68.93% | Growth Percent [1, 6]: 55.09% | Growth Percent [1, 7]: 71.91% | Growth Percent [1, 8]: 55.83% | Growth Percent [1, 9]: 51.98% | Growth Percent ([1]; Ovarian Cancer, IGROV1): 60.02% | Growth Percent ([1]; Ovarian Cancer, NCI/ADR-RES): 55.43% | Growth Percent ([1]; Ovarian Cancer, OVCAR-3): −5.24% | Growth Percent ([1]; Ovarian Cancer, OVCAR-4): 59.21% | Growth Percent ([1]; Ovarian Cancer, OVCAR-5): 65.53% | Growth Percent ([1]; Ovarian Cancer, OVCAR-8): 39.56% | Growth Percent ([1]; Ovarian Cancer, SK-OV-3): −18.44% | Growth Percent ([1]; Prostate Cancer, DU-145): 17.23% | Growth Percent ([1]; Renal Cancer, 786-0): −13.93% | Growth Percent ([1]; Renal Cancer, A498): 22.95% | Growth Percent ([1]; Renal Cancer, ACHN): 1.56% | Growth Percent ([1]; Renal Cancer, CAKI-1): 50.45% | Growth Percent ([1]; Renal Cancer, RXF 393): −28.44% | Growth Percent ([1]; Renal Cancer, SN12C): 28.50% | Growth Percent ([1]; Renal Cancer, TK-10): 20.27% | Growth Percent ([1]; Renal Cancer, UO-31): −26.89% | Growth Percent (HCT-15 (Colon Cancer)): 6.88% | GI50 (SR; SR (Leukemia), five dose): 0.859 µM | 50% growth inhibition (GI50) (SR): submicromolar | CC50 (SR; SR (Leukemia), five dose): > 100 µM | Growth Percent (SF-539): −5.93%
